Data taken from patent US20090018019A1, “INCREASING PATHOGEN DEFENCE IN PLANTS” (priority 2005, published 2009).

How the values were obtained:
Experiment in all cases: DNA chip expression analysis of barley leaves after soil treatment
Format in all cases: in vivo
Conditions in all cases: 10 mg per plant to soil
[1] = test system: Contig17082_at TRYPSIN INHIBITOR
Protocol: (§1) Barley seeds (of the Baroness variety) were sown in pots containing soil about 2 cm deep (1250 g of sandy loam/per pot; the soil moisture content was adjusted to 70% of the maximum water-holding capacity) and cultivated in a climatized chamber under specified light, moisture and temperature conditions (15 h white light, 70% atmospheric humidity, 23-19° C. day/night).
(§2) 14 days after the emergence of the barley plants 10 mg of imidacloprid per plant, dissolved in 100 ml water, were applied by means of a pipette to the soil around the base of the shoot. The same volume of water without any active compound was applied to the control pots. After the soil treatment the plants were no longer watered. At various times after application (0.25; 1; 6; 8; 11; 13; 15; 16 and 17 days) the leaves were harvested, quick-frozen in liquid nitrogen and stored at −80° C. until further treatment.
(§3) The labelled RNA probes for the DNA chip hybridization were produced according to the protocols (Expression Analysis, Technical Manual) of the Affymetrix company (Affymetrix Inc., 3380 Central Expressway, Santa Clara, Calif., USA). Whole RNA was first of all isolated from in each case 500 mg of the harvested leaves. 10 μg portions of whole RNA were used for the first and second strand cDNA synthesis. The cDNA was amplified with T7 polymerase and simultaneously labelled with biotin-UTP. 20 μg portions of this biotinylated cDNA were used for the hybridization of the barley genome array (Barleyl Gene Chip, Item no: 511012) from Affymetrix. This DNA microarray contains DNA sequences of 22840 genes composed of a total of 400000 EST (Expressed Sequence Tag) sequences. Then the DNA microarrays were washed in the Affymetrix Fluidics Station, stained with streptavidin/phycoerythrin (Molecular Probes, P/N S-866) and scanned with the Affymetrix Gene Chip Scanner 3000. The fluorescence data obtained were analyzed with the Microarray Suite 5 software from Affymetrix and the Expressionist Pro software from the GeneData company. After a quality check, all of the DNA chip analyses were stored in a database. Since the Affymetrix Gene Chip System is based on measuring the absolute expression values of the genes contained in the chip, the expression values of the biological replicates of treated and non-treated plants were averaged after normalization (median calculation). With the aid of the statistical ANOVA method, those genes were identified whose expression was increased in the plants treated with imidacloprid but remained relatively constant in the untreated controls. The assembly of gene groups from specific metabolic pathways, signal transduction chains or functions was carried out by a keyword search through the gene annotations supplied by Affymetrix and by linking the genes to their corresponding Gene Ontology Annotations (Gene Ontology Consortium).

[2] = test system: Contig2990_at CHITINASE (EC 3.2.1.14)
Protocol: as §1, §2, §3

[3] = test system: Contig2788_x_at THAUMATIN-LIKE PROTEIN TLP7
Protocol: as §1, §2, §3

[4] = test system: Contig2212_s_at PATHOGENESIS-RELATED PROTEIN PRB1-3
Protocol: as §1, §2, §3

[5] = test system: Contig639_at PATHOGENESIS-RELATED PROTEIN PRECURSOR
Protocol: as §1, §2, §3

O=[N+]([O-])/N=C1\NCCN1Cc1ccc(Cl)nc1 [imidacloprid]
Induction factor = Expression (treated)/Expression (untreated) ([1]; 0.25 d): 0.9
Median of the raw expression data, treated ([1]; 0.25 days): 161.42
Induction factor = Expression (treated)/Expression (untreated) ([1]; 1 d): 1.1
Median of the raw expression data, treated ([1]; 1 day): 162.50
Induction factor = Expression (treated)/Expression (untreated) ([1]; 6 d): 3.8
Median of the raw expression data, treated ([1]; 6 days): 745.06
Induction factor = Expression (treated)/Expression (untreated) ([1]; 8 d): 3.7
Median of the raw expression data, treated ([1]; 8 days): 853.21
Induction factor = Expression (treated)/Expression (untreated) ([1]; 11 d): 3.6
Median of the raw expression data, treated ([1]; 11 days): 911.63
Induction factor = Expression (treated)/Expression (untreated) ([1]; 13 d): 2.2
Median of the raw expression data, treated ([1]; 13 days): 281.55
Induction factor = Expression (treated)/Expression (untreated) ([1]; 15 d): 1.5
Median of the raw expression data, treated ([1]; 15 days): 209.34
Induction factor = Expression (treated)/Expression (untreated) ([1]; 16 d): 1.6
Median of the raw expression data, treated ([1]; 16 days): 276.41
Induction factor = Expression (treated)/Expression (untreated) ([1]; 17 d): 1.1
Median of the raw expression data, treated ([1]; 17 days): 225.25
Induction factor = Expression (treated)/Expression (untreated) ([2]; 0.25 d): 0.9
Median of the raw expression data, treated ([2]; 0.25 days): 31.12
Induction factor = Expression (treated)/Expression (untreated) ([2]; 1 d): 0.9
Median of the raw expression data, treated ([2]; 1 day): 29.13
Induction factor = Expression (treated)/Expression (untreated) ([2]; 6 d): 8.4
Median of the raw expression data, treated ([2]; 6 days): 561.20
Induction factor = Expression (treated)/Expression (untreated) ([2]; 8 d): 19.3
Median of the raw expression data, treated ([2]; 8 days): 830.74
Induction factor = Expression (treated)/Expression (untreated) ([2]; 11 d): 13.6
Median of the raw expression data, treated ([2]; 11 days): 664.56
Induction factor = Expression (treated)/Expression (untreated) ([2]; 13 d): 3.0
Median of the raw expression data, treated ([2]; 13 days): 235.46
Induction factor = Expression (treated)/Expression (untreated) ([2]; 15 d): 1.1
Median of the raw expression data, treated ([2]; 15 days): 227.32
Induction factor = Expression (treated)/Expression (untreated) ([2]; 16 d): 2.5
Median of the raw expression data, treated ([2]; 16 days): 76.80
Induction factor = Expression (treated)/Expression (untreated) ([2]; 17 d): 0.6
Median of the raw expression data, treated ([2]; 17 days): 32.84
Induction factor = Expression (treated)/Expression (untreated) ([3]; 0.25 d): 0.8
Median of the raw expression data, treated ([3]; 0.25 days): 71.22
Induction factor = Expression (treated)/Expression (untreated) ([3]; 1 d): 0.7
Median of the raw expression data, treated ([3]; 1 day): 70.44
Induction factor = Expression (treated)/Expression (untreated) ([3]; 6 d): 12.2
Median of the raw expression data, treated ([3]; 6 days): 5432.88
Induction factor = Expression (treated)/Expression (untreated) ([3]; 8 d): 8.0
Median of the raw expression data, treated ([3]; 8 days): 7952.61
Induction factor = Expression (treated)/Expression (untreated) ([3]; 11 d): 6.3
Median of the raw expression data, treated ([3]; 11 days): 12190.31
Induction factor = Expression (treated)/Expression (untreated) ([3]; 13 d): 2.3
Median of the raw expression data, treated ([3]; 13 days): 4800.62
Induction factor = Expression (treated)/Expression (untreated) ([3]; 15 d): 1.5
Median of the raw expression data, treated ([3]; 15 days): 4880.14
Induction factor = Expression (treated)/Expression (untreated) ([3]; 16 d): 2.5
Median of the raw expression data, treated ([3]; 16 days): 1836.52
Induction factor = Expression (treated)/Expression (untreated) ([3]; 17 d): 1.2
Median of the raw expression data, treated ([3]; 17 days): 1166.53
Induction factor = Expression (treated)/Expression (untreated) ([4]; 0.25 d): 0.9
Median of the raw expression data, treated ([4]; 0.25 days): 153.25
Induction factor = Expression (treated)/Expression (untreated) ([4]; 1 d): 0.9
Median of the raw expression data, treated ([4]; 1 day): 135.85
Induction factor = Expression (treated)/Expression (untreated) ([4]; 6 d): 9.6
Median of the raw expression data, treated ([4]; 6 days): 3508.08
Induction factor = Expression (treated)/Expression (untreated) ([4]; 8 d): 10.3
Median of the raw expression data, treated ([4]; 8 days): 3936.08
Induction factor = Expression (treated)/Expression (untreated) ([4]; 11 d): 9.0
Median of the raw expression data, treated ([4]; 11 days): 3866.40
Induction factor = Expression (treated)/Expression (untreated) ([4]; 13 d): 3.7
Median of the raw expression data, treated ([4]; 13 days): 470.29
Induction factor = Expression (treated)/Expression (untreated) ([4]; 15 d): 2.3
Median of the raw expression data, treated ([4]; 15 days): 378.35
Induction factor = Expression (treated)/Expression (untreated) ([4]; 16 d): 2.4
Median of the raw expression data, treated ([4]; 16 days): 756.91
Induction factor = Expression (treated)/Expression (untreated) ([4]; 17 d): 0.7
Median of the raw expression data, treated ([4]; 17 days): 376.36
Induction factor = Expression (treated)/Expression (untreated) ([5]; 0.25 d): 0.7
Median of the raw expression data, treated ([5]; 0.25 days): 157.66
Induction factor = Expression (treated)/Expression (untreated) ([5]; 1 d): 0.3
Median of the raw expression data, treated ([5]; 1 day): 38.68
Induction factor = Expression (treated)/Expression (untreated) ([5]; 6 d): 8.6
Median of the raw expression data, treated ([5]; 6 days): 2482.57
Induction factor = Expression (treated)/Expression (untreated) ([5]; 8 d): 14.7
Median of the raw expression data, treated ([5]; 8 days): 3944.01
Induction factor = Expression (treated)/Expression (untreated) ([5]; 11 d): 8.9
Median of the raw expression data, treated ([5]; 11 days): 4273.57
Induction factor = Expression (treated)/Expression (untreated) ([5]; 13 d): 11.3
Median of the raw expression data, treated ([5]; 13 days): 1496.21
Induction factor = Expression (treated)/Expression (untreated) ([5]; 15 d): 2.9
Median of the raw expression data, treated ([5]; 15 days): 920.86
Induction factor = Expression (treated)/Expression (untreated) ([5]; 16 d): 4.4
Median of the raw expression data, treated ([5]; 16 days): 1300.36
Induction factor = Expression (treated)/Expression (untreated) ([5]; 17 d): 2.9
Median of the raw expression data, treated ([5]; 17 days): 1196.37
